In the supplement of paper PMC10331698:
± gives the standard deviation of the averaged measurements.

Columns and labels:
Test in all cases: level (log10 ratio to DMSO vehicle control); higher = higher biomarker level / cell amount than vehicle control
[1] = compound: C=C(C)C(=O)OCCC(F)(F)C(F)(F)C(F)(F)C(F)(F)C(F)(F)C(F)(F)C(F)(F)C(F)(F)F [8:2 Fluorotelomer methacrylate] (in DMSO)
Description: (§1)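 BioMAP Diversity Plus panel of 12 human primary cell co-culture systems (3C, 4H, LPS, SAg, BT, BF4T, BE3C, CASM3C, HDF3CGF, KF3CT, MyoF, Mphg). Compounds were added 1 h before stimulation and left for 24 h (MyoF 48 h; BT 72 h for soluble read-outs or 6 d for IgG). Biomarkers were read by ELISA, cytotoxicity by SRB, PBMC viability and proliferation by Alamar Blue. Each well value was divided by the mean of 8 DMSO control wells on the same plate and log10 transformed; duplicate blinded samples were tested at 4 concentrations.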

[2] = compound: CCOC(=O)CC(=O)C(F)(F)C(F)(F)F [Ethyl pentafluoropropionyl acetate] (in DMSO)
Description: as §1

Octafluoroadipic acid = compound: O=C(O)C(F)(F)C(F)(F)C(F)(F)C(F)(F)C(=O)O [Octafluoroadipic acid] (in DMSO)
Description: as §1

[3] = compound: O=C(O)C(F)(F)OC(F)(F)C(F)(F)OC(F)(F)C(F)(F)OC(F)(F)C(F)(F)C(F)(F)C(F)(F)F [Perfluoro-3,6,9-trioxatridecanoic acid] (in DMSO); settings: 6700 nM
Description: as §1

[4] = compound: O=C(O)CCC(F)(C(F)(F)F)C(F)(F)F [4,4-bis(Trifluoromethyl)-4-fluoropropanoic acid] (in DMSO)
Description: as §1

[5] = compound: O=S(=O)(O)C(F)(F)C(F)(F)C(F)(F)C(F)(F)C(F)(F)C(F)(F)C(F)(F)F [Perfluoroheptanesulfonic acid] (in DMSO)
Description: as §1

[6] = compound: OCC(F)(F)C(F)(F)C(F)(F)C(F)F [1H,1H,5H-Perfluoropentanol] (in DMSO)
Description: as §1

Row | Test System | level (log10) ([1]; 6700 nM) | level (log10) ([1]; 20000 nM) | level (log10) ([2]; 6700 nM) | level (log10) ([2]; 20000 nM) | level (log10) ([2]; 60000 nM) | level (log10) (Octafluoroadipic acid; 6700 nM) | level (log10) (Octafluoroadipic acid; 20000 nM) | level (log10) (Octafluoroadipic acid; 60000 nM) | level (log10) [3] | level (log10) ([4]; 6700 nM) | level (log10) ([4]; 20000 nM) | level (log10) ([4]; 60000 nM) | level (log10) ([5]; 1500 nM) | level (log10) ([5]; 4400 nM) | level (log10) ([5]; 13000 nM) | level (log10) ([5]; 40000 nM) | level (log10) ([6]; 6700 nM) | level (log10) ([6]; 20000 nM) | level (log10) ([6]; 60000 nM)
1 | LPS:sPGE2 | -0.038 ± 0.013 | -0.058 ± 0.048 | 0.0175 ± 0.012 | -0.0005 ± 0.013 | 0.034 ± 0.0014 | -0.002 ± 0.044 | -0.023 ± 0.0028 | -0.014 ± 0.017 | -0.0245 ± 0.013 | -0.0445 ± 0.019 | -0.018 ± 0.033 | 0.011 ± 0.0085 | 0.018 ± 0.024 | 0.0045 ± 0.016 | 0.0175 ± 0.0064 | 0.005 ± 0.024 | -0.071 ± 0.011 | -0.027 ± 0.018 | -0.0175 ± 0.036
2 | LPS:sTNF-alpha | 0.0165 ± 0.0064 | -0.007 ± 0.017 | 0.0125 ± 0.015 | 0.0095 ± 0.0064 | 0.0085 ± 0.012 | -0.0035 ± 0.0035 | 0.0155 ± 0.005 | 0.0125 ± 0.018 | -0.019 ± 0.024 | -0.046 ± 0.045 | -0.013 ± 0.05 | -0.003 ± 0.018 | 0.024 ± 0.011 | -0.0245 ± 0.012 | -0.0225 ± 0.013 | -0.0295 ± 0.005 | 0.006 ± 0.041 | 0.0065 ± 0.044 | 0.01 ± 0.028
3 | SAg:CCL2/MCP-1 | 0.0005 ± 0.025 | 0.003 ± 0.011 | -0.0005 ± 0.011 | -0.0225 ± 0.0078 | 0.011 ± 0.0085 | -0.014 ± 0.02 | -0.0135 ± 0.0035 | 0.0015 ± 0.018 | -0.0125 ± 0.018 | 0 ± 0.033 | -0.0125 ± 0.00071 | -0.0125 ± 0.025 | -0.001 ± 0.031 | -0.0345 ± 0.044 | -0.024 ± 0.028 | 0.031 ± 0.0071 | 0.016 ± 0.0085 | 0.0115 ± 0.035 | -0.014 ± 0.035
4 | SAg:CD38 | -0.0195 ± 0.00071 | -0.011 ± 0.013 | -0.0055 ± 0.049 | 0.019 ± 0.045 | -0.0175 ± 0.0021 | -0.0415 ± 0.023 | -0.026 ± 0.017 | -0.0265 ± 0.0021 | 0.0175 ± 0.026 | -0.02 ± 0.047 | -0.008 ± 0.013 | -0.0025 ± 0.019 | -0.003 ± 0.025 | -0.019 ± 0.017 | -0.008 ± 0.027 | -0.011 ± 0.0042 | 0.0465 ± 0.018 | 0.0415 ± 0.022 | 0.0305 ± 0.049
5 | SAg:CD40 | -0.0265 ± 0.035 | -0.0335 ± 0.0078 | 0.005 ± 0.0028 | -0.0205 ± 0.0021 | -0.0275 ± 0.0035 | -0.0135 ± 0.015 | -0.013 ± 0.023 | -0.025 ± 0.016 | -0.0155 ± 0.043 | -0.0495 ± 0.073 | -0.0245 ± 0.077 | -0.055 ± 0.089 | -0.0375 ± 0.023 | -0.0165 ± 0.012 | -0.009 ± 0.016 | -0.049 ± 0.014 | -0.055 ± 0.033 | -0.018 ± 0.031 | -0.0165 ± 0.073
6 | SAg:CD62E/E-Selectin | -0.005 ± 0.013 | 0.0205 ± 0.023 | -0.0005 ± 0.018 | -0.006 ± 0.0028 | 0.004 ± 0.033 | -0.0095 ± 0.077 | 0.0125 ± 0.053 | 0.0285 ± 0.029 | -0.019 ± 0.057 | -0.011 ± 0.011 | -0.0025 ± 0.021 | -0.013 ± 0.0028 | 0.0035 ± 0.043 | -0.03 ± 0.018 | 0.0025 ± 0.00071 | 0.0435 ± 0.0035 | -0.011 ± 0.018 | 0.008 ± 0.0071 | 0.0325 ± 0.035
